Results reported in ChEMBL document CHEMBL4422621, “Novel chalcone and flavone derivatives as selective and dual inhibitors of the transport proteins ABCB1 and ABCG2” (Eur J Med Chem, 2019).
pIC50: −log10 of the molar value.

Key:
ABCG2 (BCRP) [1] = target: T1, ABCG2 (BCRP) (Homo sapiens, UniProt Q9UNQ0); assay: (§1) Inhibition of ABCG2 (unknown origin) expressed in MDCK II BCRP cells assessed as effect on heophorbide A accumulation at 5 to 10 uM after 120 mins by flow cytometric analysis relative to control; type: cell-based; conditions: MDCK II BCRP cells expressing ABCG2, probe pheophorbide A
T1 sequence (Q9UNQ0 whole entry): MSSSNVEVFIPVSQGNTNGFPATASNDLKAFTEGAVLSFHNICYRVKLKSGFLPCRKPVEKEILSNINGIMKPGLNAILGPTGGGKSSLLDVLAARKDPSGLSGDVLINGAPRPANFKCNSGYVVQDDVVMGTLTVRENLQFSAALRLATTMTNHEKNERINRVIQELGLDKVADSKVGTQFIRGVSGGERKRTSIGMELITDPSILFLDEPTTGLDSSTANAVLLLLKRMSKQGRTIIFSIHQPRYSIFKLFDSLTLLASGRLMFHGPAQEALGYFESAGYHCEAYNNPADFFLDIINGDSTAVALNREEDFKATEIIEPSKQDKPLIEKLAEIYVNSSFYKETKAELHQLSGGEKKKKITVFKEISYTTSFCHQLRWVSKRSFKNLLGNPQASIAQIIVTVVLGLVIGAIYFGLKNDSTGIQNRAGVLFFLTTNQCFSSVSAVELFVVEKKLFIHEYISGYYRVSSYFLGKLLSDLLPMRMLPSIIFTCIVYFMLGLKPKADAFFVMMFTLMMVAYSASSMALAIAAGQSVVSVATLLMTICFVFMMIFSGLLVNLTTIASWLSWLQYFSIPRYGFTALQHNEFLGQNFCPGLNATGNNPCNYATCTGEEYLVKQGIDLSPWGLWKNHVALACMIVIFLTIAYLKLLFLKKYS

[2] = target: ATP-dependent translocase ABCB1 (Homo sapiens, UniProt P08183); assay: (§2) Inhibition of ABCB1 in human A2780/ADR cells preincubated for 30 mins followed by calcein AM addition and measured every 60 secs for 1 hr by fluorescence assay; type: cell-based
Chain of ATP-dependent translocase ABCB1 (P08183 whole entry): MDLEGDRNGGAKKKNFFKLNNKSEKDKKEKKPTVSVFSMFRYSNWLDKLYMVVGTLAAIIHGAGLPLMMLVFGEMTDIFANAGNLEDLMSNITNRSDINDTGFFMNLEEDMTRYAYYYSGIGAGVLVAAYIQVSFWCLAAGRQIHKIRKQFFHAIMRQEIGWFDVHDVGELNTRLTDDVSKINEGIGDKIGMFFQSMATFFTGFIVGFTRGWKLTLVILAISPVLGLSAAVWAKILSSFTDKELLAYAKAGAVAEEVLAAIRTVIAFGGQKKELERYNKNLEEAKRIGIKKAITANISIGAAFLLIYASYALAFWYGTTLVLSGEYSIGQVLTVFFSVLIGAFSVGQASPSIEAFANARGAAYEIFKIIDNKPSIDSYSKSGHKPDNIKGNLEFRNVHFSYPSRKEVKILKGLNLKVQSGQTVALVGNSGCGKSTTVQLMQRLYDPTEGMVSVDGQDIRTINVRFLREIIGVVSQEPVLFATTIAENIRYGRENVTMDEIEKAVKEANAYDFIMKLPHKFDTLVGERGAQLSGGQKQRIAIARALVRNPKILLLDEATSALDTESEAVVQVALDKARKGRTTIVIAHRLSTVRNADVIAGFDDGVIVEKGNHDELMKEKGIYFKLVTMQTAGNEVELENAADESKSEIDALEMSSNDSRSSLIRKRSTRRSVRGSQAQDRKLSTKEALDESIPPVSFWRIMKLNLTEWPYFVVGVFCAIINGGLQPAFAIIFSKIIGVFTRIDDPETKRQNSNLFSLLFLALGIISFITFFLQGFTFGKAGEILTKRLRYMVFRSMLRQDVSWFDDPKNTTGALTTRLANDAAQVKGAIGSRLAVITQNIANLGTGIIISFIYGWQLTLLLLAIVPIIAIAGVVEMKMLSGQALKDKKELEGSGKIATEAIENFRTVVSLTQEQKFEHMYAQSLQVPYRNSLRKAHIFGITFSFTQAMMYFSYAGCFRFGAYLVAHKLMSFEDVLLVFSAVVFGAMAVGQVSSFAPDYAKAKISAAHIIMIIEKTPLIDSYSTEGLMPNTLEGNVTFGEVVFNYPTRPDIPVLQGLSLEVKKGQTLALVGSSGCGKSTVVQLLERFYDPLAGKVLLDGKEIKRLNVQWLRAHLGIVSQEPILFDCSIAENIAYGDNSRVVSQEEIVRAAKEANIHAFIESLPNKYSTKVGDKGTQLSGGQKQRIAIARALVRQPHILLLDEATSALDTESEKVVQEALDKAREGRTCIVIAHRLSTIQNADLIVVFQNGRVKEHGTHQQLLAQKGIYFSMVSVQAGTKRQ

[3] = target: T2, Broad substrate specificity ATP-binding cassette transporter ABCG2 (Homo sapiens, UniProt Q9UNQ0); assay: Inhibition of ABCG2 (unknown origin) expressed in MDCK II BCRP cells assessed as effect on pheophorbide A accumulation after 120 mins by flow cytometric analysis; type: cell-based
T2 sequence (Q9UNQ0 whole entry): T1 sequence (Q9UNQ0 whole entry)

[4] = target: Multidrug resistance-associated protein 1 (Homo sapiens, UniProt P33527); assay: Inhibition of ABCC1 in human […] cells preincubated for 30 mins followed by calcein AM addition and measured every 60 secs for 1 hr by fluorescence assay; type: cell-based
Chain of Multidrug resistance-associated protein 1 (P33527 whole entry): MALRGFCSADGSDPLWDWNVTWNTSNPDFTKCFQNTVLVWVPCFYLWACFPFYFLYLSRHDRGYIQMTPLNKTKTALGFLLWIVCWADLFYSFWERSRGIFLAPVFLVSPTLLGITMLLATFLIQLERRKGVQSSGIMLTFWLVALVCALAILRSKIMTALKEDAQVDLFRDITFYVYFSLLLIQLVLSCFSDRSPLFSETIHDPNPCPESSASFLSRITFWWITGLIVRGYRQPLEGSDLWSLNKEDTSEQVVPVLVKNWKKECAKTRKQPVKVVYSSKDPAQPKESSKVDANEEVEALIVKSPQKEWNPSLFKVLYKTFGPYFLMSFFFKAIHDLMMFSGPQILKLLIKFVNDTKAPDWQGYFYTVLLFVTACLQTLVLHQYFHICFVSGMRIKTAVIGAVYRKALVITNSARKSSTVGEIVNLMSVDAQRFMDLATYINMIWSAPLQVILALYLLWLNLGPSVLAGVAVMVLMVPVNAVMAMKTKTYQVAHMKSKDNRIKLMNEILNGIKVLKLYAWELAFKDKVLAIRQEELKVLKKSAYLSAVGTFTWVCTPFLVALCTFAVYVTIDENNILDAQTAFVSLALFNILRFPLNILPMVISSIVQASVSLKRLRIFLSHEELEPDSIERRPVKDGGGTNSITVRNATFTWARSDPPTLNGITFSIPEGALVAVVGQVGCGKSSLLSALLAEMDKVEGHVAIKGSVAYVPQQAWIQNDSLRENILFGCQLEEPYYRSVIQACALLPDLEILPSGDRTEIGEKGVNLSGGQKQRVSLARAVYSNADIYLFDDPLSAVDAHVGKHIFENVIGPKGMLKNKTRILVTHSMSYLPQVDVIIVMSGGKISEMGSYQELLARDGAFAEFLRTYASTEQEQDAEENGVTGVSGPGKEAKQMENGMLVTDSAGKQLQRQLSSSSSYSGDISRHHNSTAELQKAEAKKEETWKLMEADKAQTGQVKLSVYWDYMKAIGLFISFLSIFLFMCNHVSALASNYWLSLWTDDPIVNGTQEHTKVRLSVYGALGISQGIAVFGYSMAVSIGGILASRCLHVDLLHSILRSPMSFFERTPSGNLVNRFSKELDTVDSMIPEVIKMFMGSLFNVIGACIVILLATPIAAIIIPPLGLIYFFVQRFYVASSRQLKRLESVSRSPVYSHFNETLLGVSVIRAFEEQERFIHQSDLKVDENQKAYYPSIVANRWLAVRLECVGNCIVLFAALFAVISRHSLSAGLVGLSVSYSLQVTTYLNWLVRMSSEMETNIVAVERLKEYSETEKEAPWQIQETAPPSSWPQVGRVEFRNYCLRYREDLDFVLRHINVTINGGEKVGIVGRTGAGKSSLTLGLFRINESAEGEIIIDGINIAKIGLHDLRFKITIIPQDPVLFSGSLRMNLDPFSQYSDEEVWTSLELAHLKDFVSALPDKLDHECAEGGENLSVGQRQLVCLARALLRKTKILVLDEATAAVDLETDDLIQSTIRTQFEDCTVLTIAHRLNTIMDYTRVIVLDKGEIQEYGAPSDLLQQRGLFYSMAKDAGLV

ABCG2 (BCRP) [5] = assay: Therapeutic index, ratio of GI50 for MDCK2 cells expressing BCRP (unknown origin) to EC50 for ABCG2 (unknown origin) co-expressed in MDCK2 cells expressing BCRP (unknown origin); type: toxicity, cell-based; conditions: dog
[6] = Growth inhibition of MDCK2 cells expressing BCRP (unknown origin) after 72 hrs by MTT assay; type: ADME, cell-based, Canis lupus familiaris, MDCK-II; conditions: dog
[7] = Growth inhibition of MDCK2 cells after 72 hrs by MTT assay; type: cell-based, Canis lupus familiaris, MDCK-II; conditions: dog
[8] = target: T2, Broad substrate specificity ATP-binding cassette transporter ABCG2; assay: as §1; type: cell-based; conditions: 2 h
[9] = Growth inhibition of human A2780 cells after 72 hrs by MTT assay; type: cell-based
ABCB1 (P-gp) [10] = assay: Therapeutic index, ratio of GI50 for human A2780/ADR cells to EC50 for ABCB1 in human A2780/ADR cells; type: toxicity, cell-based
[11] = Growth inhibition of human A2780/ADR cells after 72 hrs by MTT assay; type: cell-based
ABCB1 (P-gp) [12] = target: ABCB1 (P-gp) (Homo sapiens, UniProt P08183); assay: as §2; type: cell-based; conditions: human, A2780/ADR cells, probe calcein AM; read-out: Imax
Chain of ABCB1 (P-gp) (Homo sapiens, UniProt P08183) (P08183 whole entry): as the sequence (P08183 whole entry) above

Row | Structure (SMILES) | inhibition at 2 h (ABCG2 (BCRP) [1]) [%] | pIC50 [2] | pIC50 [3] | pIC50 [4] | inhibition (INH) [8] | Emax at 1 h (ABCB1 (P-gp) [12]) [%] | selectivity ratio (ABCG2 (BCRP) [5]) | GI50 at 72 h [6] [µM] | GI50 at 72 h [7] [µM] | GI50 at 72 h [9] [µM] | selectivity ratio (ABCB1 (P-gp) [10]) | GI50 at 72 h [11] [µM]
1 | COc1cc(/C=C/C(=O)c2cccc(OCC(=O)Nc3ccc4c(c3)COC4=O)c2)cc(OC)c1OC | ≥ 25 | 4.93 | 5.00 | – | – | – | – | – | – | – | – | –
2 | COc1ccc(NC(=O)COc2ccc(C(=O)/C=C/c3cc(OC)c(OC)c(OC)c3)cc2)cc1OC | ≥ 25 | – | 5.47 | 4.90 | – | – | 8.2 | 27.7 | 18.9 | – | – | –
3 | O=C(COc1c(-c2ccccc2Cl)oc2ccccc2c1=O)Nc1ccc2c(c1)COC2=O | ≥ 25 | 5.30 | 5.54 | – | – | – | 19.4 | 56.3 | 67.6 | 61.1 | 13.8 | 69.2

More lines, main results first:

Row | inhibition at 2 h (ABCG2 (BCRP) [1]) [%] | pIC50 [2] | pIC50 [3] | pIC50 [4] | inhibition (INH) [8] | Emax at 1 h (ABCB1 (P-gp) [12]) [%] | Structure (SMILES) | selectivity ratio (ABCG2 (BCRP) [5]) | GI50 at 72 h [6] [µM] | GI50 at 72 h [7] [µM] | GI50 at 72 h [9] [µM] | selectivity ratio (ABCB1 (P-gp) [10]) | GI50 at 72 h [11] [µM]
4 | – | 5.72 | – | – | Not Active | – | Cc1ccc(-c2c(OCC(=O)Nc3cccc4ccccc34)oc3ccccc3c2=O)cc1 | – | – | – | 68.7 | 52.2 | 98.6
5 | ≥ 25 | 5.85 | 5.29 | – | – | 51 | COc1ccc(-c2c(OCC(=O)Nc3cccc4ccccc34)oc3ccccc3c2=O)cc1 | > 19.6 | > 100 | > 100 | – | – | –
6 | ≥ 25 | 5.27 | 5.43 | – | – | – | COc1ccc(-c2c(OCC(=O)Nc3cccc4ccccc34)oc3ccccc3c2=O)cc1OC | > 26.7 | > 100 | > 100 | 43.6 | 8.3 | 45.3
